Data reported in paper PMC4826192 (Oncotarget, 2015).

Test system: MPNST (malignant peripheral nerve sheath tumor) cells
Experiment: Cell viability assay (Dojindo CCK-8)
Settings: 72 hours

Compound | anti-proliferative effect, comparison of TKIs (500 nmol/L) | inhibition of MPNST cell proliferation, pazopanib versus MGCD516
Cc1ccc(NC(=O)c2ccc(CN3CCN(C)CC3)cc2)cc1Nc1nccc(-c2cccnc2)n1 [imatinib] | anti-proliferative effect similar to MGCD516 | 
Cc1ccc(Nc2nccc(N(C)c3ccc4c(C)n(C)nc4c3)n2)cc1S(N)(=O)=O [pazopanib] |  | similar
